In experiment [1] the target is T1, AChE (Homo sapiens, UniProt P22303). The experiment is described as follows: biochemical. The settings on record: for Selectivity for AChE: IC50 (BChE)/IC50 (AChE).
The target of a further experiment is BChE (Homo sapiens, UniProt P06276). The experiment is described as follows: biochemical.
Experiment [2] deals with T1, AChE. The experiment is described as follows: Kinetic study of AChE inhibition. The experiment is classed as biochemical.

Some results are limits rather than exact numbers.

T1 sequence (P22303 32-614): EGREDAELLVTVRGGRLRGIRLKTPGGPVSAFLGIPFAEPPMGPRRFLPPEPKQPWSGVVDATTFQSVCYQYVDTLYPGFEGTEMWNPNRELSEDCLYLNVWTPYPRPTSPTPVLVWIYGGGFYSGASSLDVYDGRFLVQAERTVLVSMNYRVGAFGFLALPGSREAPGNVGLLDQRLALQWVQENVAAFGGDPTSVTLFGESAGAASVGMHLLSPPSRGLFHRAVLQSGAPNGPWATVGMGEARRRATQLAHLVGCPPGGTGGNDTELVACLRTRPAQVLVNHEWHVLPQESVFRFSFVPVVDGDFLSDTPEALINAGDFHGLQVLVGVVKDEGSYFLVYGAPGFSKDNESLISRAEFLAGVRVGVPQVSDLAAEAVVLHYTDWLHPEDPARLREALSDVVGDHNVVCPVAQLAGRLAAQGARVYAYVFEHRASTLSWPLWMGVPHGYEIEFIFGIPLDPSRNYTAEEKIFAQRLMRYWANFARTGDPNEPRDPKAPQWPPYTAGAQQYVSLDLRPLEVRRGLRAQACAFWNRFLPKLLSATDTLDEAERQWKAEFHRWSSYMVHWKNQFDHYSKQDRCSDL
BChE, sequence (P06276 29-602): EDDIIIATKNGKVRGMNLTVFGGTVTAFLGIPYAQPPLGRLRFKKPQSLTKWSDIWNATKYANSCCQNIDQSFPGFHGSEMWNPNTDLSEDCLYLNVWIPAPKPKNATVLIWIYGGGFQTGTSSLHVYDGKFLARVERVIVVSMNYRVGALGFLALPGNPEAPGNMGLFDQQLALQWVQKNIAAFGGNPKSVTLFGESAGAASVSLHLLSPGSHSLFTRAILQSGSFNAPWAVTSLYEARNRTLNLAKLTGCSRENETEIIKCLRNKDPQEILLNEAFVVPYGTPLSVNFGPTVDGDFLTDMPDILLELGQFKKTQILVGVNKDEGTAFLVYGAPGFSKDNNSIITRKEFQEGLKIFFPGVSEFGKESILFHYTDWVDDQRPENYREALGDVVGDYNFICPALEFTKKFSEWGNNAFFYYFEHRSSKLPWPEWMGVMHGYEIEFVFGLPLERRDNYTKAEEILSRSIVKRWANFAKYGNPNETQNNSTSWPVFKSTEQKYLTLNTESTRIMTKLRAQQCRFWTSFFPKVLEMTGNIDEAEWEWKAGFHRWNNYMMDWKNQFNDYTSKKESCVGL

The IC50 is the concentration that inhibits the measured activity by half. Low readings indicate greater potency, high ones weaker potency. One may read the Ki as the equilibrium dissociation constant of an inhibitor or competing ligand from its target. As for `O=C(/C=C/c1ccc(OCCN2CCCC2)cc1)c1cc2ccccc2oc1=O` [Compound 5e, (E)-3-(3-(4-(2-(pyrrolidin-1-yl)ethoxy)phenyl)acryloyl)-2H-chromen-2-one], on AChE [1], the IC50 was found to be 0.15 ± 0.01 µM, the “inhibitory activity against AChE (in words)” value is reported as “potent inhibitory activity”, the “selectivity over BChE (in words)” value is recorded as “high selectivity” and the “Selectivity for AChE” value was 27.40. The molecule further came in with an IC50 at BChE of 4.11 ± 0.16 µM. At AChE [2], the Ki stood at 0.11 µM. For the same molecule, the “non-competitive constant (Ki′)” value at AChE [2] (AChE, substrate acetylthiocholine iodide, pH 7.4, 30 °C) was found to be 0.19 µM. Further, the “inhibition mechanism against AChE” value at AChE [2] (Lineweaver-Burk analysis) was “mixed-type inhibition”.
`CC(C)=CCOc1ccccc1/C=C/C(=O)c1cc2ccccc2oc1=O` [Compound 7j, (E)-3-(3-(2-(3-methylbut-2-enyloxy)phenyl)-prop-2-enoyl)-2H-chromen-2-one]: at AChE [1], the IC50 was more than 500 µM and the “Selectivity for AChE” value is listed as less than 0.20. Also, the IC50 at BChE stood at 100 ± 6.84 µM.
For `O=C(/C=C/c1ccccc1OCCN1CCCCC1)c1cc2ccccc2oc1=O` [Compound 7f, (E)-3-(3-(2-(2-(piperidin-1-yl)ethoxy)phenyl)acryloyl)-2H-chromen-2-one], at AChE [1], 29.9 ± 0.98 µM corresponded to half-maximal inhibition (IC50) and the “Selectivity for AChE” value worked out at 0.15. The midpoint of inhibition against BChE, the IC50, lay at 4.5 ± 0.22 µM.
On to `O=C(/C=C/c1ccc(OCC(=O)N2CCCC2)cc1)c1cc2ccccc2oc1=O` [Compound 9e, (E)-3-(3-(4-(2-oxo-2-(pyrrolidin-1-yl)ethoxy)phenyl)acryloyl)-2H-chromen-2-one], for which the 50% inhibitory concentration (IC50) on AChE [1] and on BChE was more than 500 µM throughout.
Consider `COc1cc(/C=C/C(=O)c2cc3ccccc3oc2=O)cc(OC)c1OCCN1CCCCC1` [Compound 13m, (E)-3-(3-(3,5-dimethoxy-4-(2-(piperidin-1-yl)ethoxy)phenyl)acryloyl)-2H-chromen-2-one], for which, at AChE [1], the IC50 came to 9.58 ± 0.8 µM and the “Selectivity for AChE” value stood at 0.67. The molecule further showed a 50% inhibitory concentration (IC50) against BChE of 6.41 ± 0.36 µM.

Values taken from paper PMC6309603 (Molecular diversity, 2018).
